Laboratory results as given in paper PMC10819771 (Pharmaceuticals, 2023).
Where two headings read alike, the source gives them in different places.

Columns and labels:
HeLa = experiment: MTT antiproliferative assay, HeLa; type: cell-based, human; conditions: MTT, 72 h, cervical cancer cells, read-out: IC50 Values (μM) ± SEM HeLa
Procedure: (§1) The growth-inhibitory effects of the compounds were determined by MTT (3-(4,5-dimethylthiazol-2-yl)-2,5-diphenyltetrazolium bromide) assay on selected cell lines, including HeLa and SiHa (cervical cancers), MDA-MB-231 and MCF-7 (breast cancers), and A2780 ovarian cancer cells. All cell lines were purchased from the European Collection of Cell Cultures (Salisbury, UK) except SiHa, which was obtained from the American Tissue Culture Collection (Manassas, VA, USA). The cells were kept in minimum essential medium supplemented with 10% fetal bovine serum, 1% non-essential amino acids, and 1% penicillin-streptomycin-amphotericin-B at 37 °C in a humidified atmosphere containing 5% CO2. Media and supplements were obtained from Lonza Group Ltd., (Basel, Switzerland). Cancer cells were seeded onto 96-well plates (5000 cells/well), after an overnight incubation the test compounds were added in six concentrations (0.1, 0.3, 1.0, 3.0, 10.0, 30.0 µM) and incubated for 72 h under cell-culture condition. After the incubation, 20 μL of 5 mg/mL MTT solution was added to each well and incubated for a further 4 h. The medium was removed, and the precipitated formazan crystals were dissolved in DMSO for 30 min under shaking at 37 °C. The absorbance was measured at 545 nm with a microplate reader. Untreated cells were included as controls. Calculations were performed by means of the GraphPad Prism 5.01 software (GraphPad Software Inc., San Diego, CA, USA). At least two independent determinations were performed with 5 parallel wells for each condition.

SiHa = experiment: MTT antiproliferative assay, SiHa; type: cell-based, human; conditions: MTT, 72 h, cervical cancer cells, read-out: IC50 Values (μM) ± SEM SiHa
Procedure: as §1

MCF-7 = experiment: MTT antiproliferative assay, MCF-7; type: cell-based, human; conditions: MTT, 72 h, breast cancer cells, read-out: IC50 Values (μM) ± SEM MCF-7
Procedure: as §1

MDA-MB-231 = experiment: MTT antiproliferative assay, MDA-MB-231; type: cell-based, human; conditions: MTT, 72 h, breast cancer cells, read-out: IC50 Values (μM) ± SEM MDA-MB-231
Procedure: as §1

A2780 = experiment: MTT antiproliferative assay, A2780; type: cell-based, human; conditions: MTT, 72 h, ovarian cancer cells, read-out: IC50 Values (μM) ± SEM A2780
Procedure: as §1

K562 = experiment: MTS cell proliferation assay, K562; type: cell-based, human; conditions: MTS, 3-day incubation, leukemia cells, read-out: IC50 Values (μM) ± SEM K562
Procedure: The human leukemic cell line K562 was grown in RPMI 1640 medium (Life Technology-Invitrogen by Thermo Fisher Scientific, Saint-Aubin, France) supplemented with 10% fetal calf serum (FCS), antibiotics (100 U/mL penicillin, 100 µg/mL streptomycin), and L-glutamine, (Eurobio, Les Ulis, France) at 37 °C, 5% CO2 in air. The MTS cell proliferation assay (Promega, Charbonnières-les-Bains, France) is a colorimetric assay system, which measures the transformation of a tetrazolium component (MTS) into formazan produced by the mitochondria of viable cells. Cells were washed twice in PBS (Phosphate Buffer Saline) and plated in quadruplicate into microtiter-plate wells in 100 μL culture media with or without our various compounds at increasing concentrations (0, 1, 5, 10, 20, and 50 μM) for 1, 2, and 3 days. After 3 h of incubation at 37 °C with 20 μL MTS/well, the plates were read using an ELISA microplate reader (Thermo, Electrocorporation, Waltham, MA, USA) at 490 nm. The amount of color produced was directly proportional to the number of viable cells. The results are expressed as the concentrations inhibiting cell growth by 50% after a 3-day incubation period. The 50% cytotoxic concentrations (CC50) were determined by linear regression analysis, expressed in μM ± SD (Microsoft Excel).

Fc-MYCT = experiment: FRET-melting, Fc-MYCT; type: binding; conditions: ligand 2 μM, DNA 0.2 μM, K+ conditions, pH 7.2
Procedure: (§2) FRET-melting experiments were conducted on a Stratagene MX3005P (Thermo Fisher Scientific, Illkirch-Graffenstaden, France) real-time PCR equipment in 96-well plates on the DNA sequences reported in Table 4. Experiments were performed in 10 mM lithium cacodylate buffer (pH 7.2) and either 10 mM KCl and 90 mM LiCl (FK-RAST, FBCL-2T, F21T, and FdxT) or 1 mM KCl and 99 mM LiCl (Fc-MYCT) concentrations, depending on the Tm of the G4s alone. The DNA concentration was 0.2 µM. […] Data are presented as an average of three independent measurements, each conducted in duplicate conditions (λexc = 492 nm, λem = 516 nm, T interval = 25–95 °C, ramp: 25 °C for 5 min, then 1 °C/min, measurements every 1 °C, 8× magnification of the fluorescence signal).

FK-RAST = experiment: FRET-melting, FK-RAST; type: binding; conditions: ligand 2 μM, DNA 0.2 μM, 10 mM KCl, 90 mM LiCl, pH 7.2
Procedure: as §2

FBCL-2T = experiment: FRET-melting, FBCL-2T; type: binding; conditions: ligand 2 μM, DNA 0.2 μM, 10 mM KCl, 90 mM LiCl, pH 7.2
Procedure: as §2

[1] = system: human telomeric sequence F21T; experiment: FRET-melting, F21T; type: binding; conditions: ligand 2 μM, DNA 0.2 μM, 10 mM KCl, 90 mM LiCl, pH 7.2
Procedure: as §2

FdxT = experiment: FRET-melting, duplex control FdxT; type: binding; conditions: ligand 2 μM, DNA 0.2 μM, 10 mM KCl, 90 mM LiCl, pH 7.2, hairpin duplex
Procedure: as §2

Compound | IC50 (HeLa) | IC50 (SiHa) | IC50 (MCF-7) | IC50 (MDA-MB-231) | IC50 (A2780) | IC50 (K562) | ΔT1/2 (°C) Fc-MYCT (Fc-MYCT) | ΔT1/2 (°C) FK-RAST (FK-RAST) | ΔT1/2 (°C) FBCL-2T (FBCL-2T) | ΔT1/2 (°C) F21T [1] | ΔT1/2 (°C) FdxT (FdxT) | IC50 (HeLa; Homo sapiens, HeLa) | IC50 (SiHa; Homo sapiens, SiHa) | IC50 (MCF-7; Homo sapiens, MCF7, 72 h) | IC50 (MDA-MB-231; Homo sapiens, MDA-MB-231, 72 h) | IC50 (A2780; Homo sapiens, A2780) | IC50 (K562; Homo sapiens, K562, 72 h)
2,4-bis{4-[(4-(3-methylpiperazin-1-yl)propyl)aminomethyl]phenyl}-6-phenylquinazoline [Compound 12d] | 1.32 ± 0.02 µM | 1.28 ± 0.27 µM | 1.01 ± 0.3 µM | 1.44 ± 0.17 µM | 1.74 ± 0.11 µM | 17 ± 0.4 µM | 8.4 ± 0.9 °C | 15.5 ± 0.5 °C | 9.7 ± 0.06 °C | 15.8 ± 1.2 °C | 0.5 ± 0.3 °C | – | – | – | – | – | –
CN(C)CCCCNCc1ccc(-c2nc(-c3ccc(CNCCCCN(C)C)cc3)c3cc(-c4ccccc4)ccc3n2)cc1 [Compound 12c, 2,4-bis{4-[(4-dimethylaminobutyl)aminomethyl]phenyl}-6-phenylquinazoline] | – | – | – | – | – | – | 17.7 ± 0.8 °C | 24.5 ± 0.7 °C | 16.4 ± 0.4 °C | 28.0 ± 0.4 °C | 3.8 ± 0.8 °C | 2.21 ± 0.86 µM | 0.76 ± 0.01 µM | 1.44 ± 0.03 µM | 1.07 ± 0.42 µM | 2.04 ± 0.54 µM | 7 ± 0.2 µM
CN(C)CCCCCNCc1ccc(-c2nc(-c3ccc(CNCCCCCN(C)C)cc3)c3ccc(-c4ccccc4)cc3n2)cc1 [Compound 12h, 2,4-bis{4-[(5-dimethylaminopentyl)aminomethyl]phenyl}-7-phenylquinazoline] | – | – | – | – | – | – | 18.7 ± 0.2 °C | 28.6 ± 2.1 °C | 18.2 ± 1.7 °C | 28.1 ± 2.3 °C | 2.7 ± 1.0 °C | 2.31 ± 0.76 µM | 0.75 ± 0.01 µM | 1.19 ± 0.27 µM | 1.1 ± 0.38 µM | 1.43 ± 0.07 µM | 13 ± 0.2 µM
CN(C)CCCNCc1ccc(-c2nc(-c3ccc(CNCCCN(C)C)cc3)c3cccc(-c4ccccc4)c3n2)cc1 [Compound 12k, 2,4-bis{4-[(3-dimethylaminopropyl)aminomethyl]phenyl}-8-phenylquinazoline] | – | – | 1.24 ± 0.14 µM | – | – | – | 9.9 ± 1.4 °C | 13.0 ± 0.4 °C | 9.5 ± 0.2 °C | – | 0.8 ± 0.1 °C | 1.19 ± 0.24 µM | 1.01 ± 0.27 µM | 1.12 to 1.24 µM | 1.36 ± 0.06 µM | 1.34 ± 0.14 µM | 7 ± 0.1 µM
CN(C)CCCCNCc1ccc(-c2nc(-c3ccc(CNCCCCN(C)C)cc3)c3cccc(-c4ccccc4)c3n2)cc1 [Compound 12l, 2,4-bis{4-[(4-dimethylaminobutyl)aminomethyl]phenyl}-8-phenylquinazoline] | – | – | – | – | – | – | 14.2 ± 1.1 °C | 18.7 ± 0.8 °C | 17.2 ± 1.2 °C | 24.9 ± 0.3 °C | 2.9 ± 0.2 °C | 1.39 ± 0.16 µM | 1.14 ± 0.51 µM | 1.45 ± 0.02 µM | 1.55 ± 0.12 µM | 2.08 ± 0.48 µM | 7 ± 0.2 µM
CC1CN(CCCNCc2ccc(-c3nc(-c4ccc(CNCCCN5CCNC(C)C5)cc4)c4cccc(-c5ccccc5)c4n3)cc2)CCN1 (stereo not drawn) [Compound 12m, 2,4-bis{4-[(4-(3-methylpiperazin-1-yl)propyl)aminomethyl]phenyl}-8-phenylquinazoline] | 1.17 ± 0.23 µM | 0.88 ± 0.14 µM | 1.22 ± 0.19 µM | 2 ± 0.45 µM | 2.1 ± 0.48 µM | 7 ± 0.2 µM | 14.6 ± 0.9 °C | 18.2 ± 0.6 °C | 15.5 ± 0.3 °C | 23.3 ± 0.7 °C | 2.2 ± 0.2 °C | – | – | – | – | – | –
CN1CCN(CCCCNCc2ccc(-c3nc(-c4ccc(CNCCCCN5CCN(C)CC5)cc4)c4cccc(-c5ccccc5)c4n3)cc2)CC1 [Compound 12n, 2,4-bis{4-[(4-(4-methylpiperazin-1-yl)butyl)aminomethyl]phenyl}-8-phenylquinazoline] | – | – | – | – | – | – | 17.0 ± 2.0 °C | 18.0 ± 2.5 °C | 12.0 ± 2.0 °C | 20.7 ± 3.1 °C | 2.4 ± 0.7 °C | 3.51 ± 0.17 µM | 1.89 ± 0.74 µM | 4.17 ± 0.5 µM | 3.94 ± 0.54 µM | 7.1 ± 1.15 µM | 14 ± 0.3 µM
CN(C)CCCCNCc1ccc(-c2cc(-c3ccc(CNCCCCN(C)C)cc3)c3cc(-c4ccccc4)ccc3n2)cc1 [Compound 13b, 2,4-bis{4-[(4-dimethylaminobutyl)aminomethyl]phenyl}-6-phenylquinoline] | – | – | – | – | – | – | 13.8 ± 3.0 °C | 19.6 ± 3.5 °C | 11.1 ± 2.6 °C | 13.6 ± 2.9 °C | 1.5 ± 0.6 °C | 3.58 ± 0.18 µM | 1.76 ± 0.61 µM | 3.03 ± 0.64 µM | 3.68 ± 0.8 µM | 6.49 ± 1.76 µM | 13 ± 0.4 µM
CC1CN(CCCNCc2ccc(-c3cc(-c4ccc(CNCCCN5CCNC(C)C5)cc4)c4cc(-c5ccccc5)ccc4n3)cc2)CCN1 (stereo not drawn) [Compound 13c, 2,4-bis{4-[(4-(3-methylpiperazin-1-yl)propyl)aminomethyl]phenyl}-6-phenylquinoline] | 1.3 ± 0.06 µM | 1.45 ± 0.13 µM | 0.86 ± 0.38 µM | 1.33 ± 0.13 µM | 1.58 ± 0.1 µM | 34 ± 0.7 µM | 6.8 ± 1.4 °C | 14.5 ± 0.8 °C | 7.5 ± 0.5 °C | 11.3 ± 0.9 °C | 0.1 ± 0.2 °C | – | – | – | – | – | –
